Values of other authors in US20240101656A1, “PLK1 INHIBITOR IN COMBINATION WITH ANTI-ANGIOGENICS FOR TREATING METASTATIC CANCER” (CARDIFF ONCOLOGY, INC., priority 2022, published 2024).
Where two headings read alike, the source gives them in different places. Values belong to the compound of their own block, whether it stands above or below them.

How the values were obtained:
xenograft models of AML = conditions: in vivo
[1] = system: disseminated models of AML
[2] = system: patients with advanced/metastatic solid tumors
PLK1 = PLK1 (Homo sapiens, UniProt P53350)
[3] = system: cell lines, both from solid as well as hematologic tumors
[4] = system: HT29 human colon adenocarcinoma xenografts; conditions: combination therapy with irinotecan
xenograft tumor = conditions: well tolerated doses, oral administration
[5] = in vivo
AML = conditions: in combination with LDAC
[6] = system: patients with AML who were treatment naïve yet unsuitable for induction therapy; conditions: intravenously, in combination with LDAC
[7] = 2nd line

Sequence of PLK1 (P53350 whole entry): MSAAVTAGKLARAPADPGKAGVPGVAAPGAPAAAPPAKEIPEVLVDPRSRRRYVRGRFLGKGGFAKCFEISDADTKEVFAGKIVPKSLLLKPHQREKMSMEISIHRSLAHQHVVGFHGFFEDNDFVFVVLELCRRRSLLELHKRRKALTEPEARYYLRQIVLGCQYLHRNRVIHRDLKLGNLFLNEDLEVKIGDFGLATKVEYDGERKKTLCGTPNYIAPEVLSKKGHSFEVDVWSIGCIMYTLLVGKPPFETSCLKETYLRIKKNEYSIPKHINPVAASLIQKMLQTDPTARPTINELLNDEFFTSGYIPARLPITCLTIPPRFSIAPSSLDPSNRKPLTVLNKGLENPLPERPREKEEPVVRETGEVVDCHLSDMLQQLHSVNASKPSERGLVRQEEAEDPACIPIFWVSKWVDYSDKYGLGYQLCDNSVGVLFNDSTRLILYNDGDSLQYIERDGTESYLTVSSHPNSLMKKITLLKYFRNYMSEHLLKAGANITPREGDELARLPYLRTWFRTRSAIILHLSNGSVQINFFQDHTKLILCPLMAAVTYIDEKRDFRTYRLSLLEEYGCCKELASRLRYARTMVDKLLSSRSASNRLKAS

specificity for PLK1 among a panel of 296 kinases, including other PLK members (PLK1): high specificity | oral bioavailability [5]: good oral bioavailability
Compound: CN1CCN(c2ccc(OC(F)(F)F)c(Nc3ncc4c(n3)-c3c(c(C(N)=O)nn3CCO)CC4)c2)CC1 [onvansertib, 1-(2-hydroxyethyl)-8-{[5-(4-methylpiperazin-1-yl)-2-(trifluoromethoxy)phenyl]amino}-4,5-dihydro-1H-pyrazolo[4,3-h]quinazoline-3-carboxamide]
concentrations inhibiting cell proliferation (AML cell lines): nanomolar concentrations | tumor growth (xenograft models of AML): inhibited | survival of animals ([1]; combination therapy with cytarabine): prolonged survival | cytarabine antitumor activity ([1]; in combination with cytarabine): significantly increased | primary dose-limiting toxicities ([2]; in vivo): neutropenia and thrombocytopenia | recovery from hematologic toxicities ([2]; reversible): ≤ 3 weeks | cell-cycle effect (cancer cell lines): mitotic cell-cycle arrest followed by apoptosis | activity in proliferation assays [3]: low nanomolar activity | tumor regression compared to each agent alone [4]: enhanced tumor regression | xenograft tumor growth (xenograft tumor): inhibits xenograft tumor growth

risk of severe infections (AML): increased risk of severe infections
Compound: CC[C@@H]1C(=O)N(C)c2cnc(Nc3ccc(C(=O)N[C@H]4CC[C@H](N5CCN(CC6CC6)CC5)CC4)cc3OC)nc2N1C(C)C [volasertib (BI6727)]
benefit of the combination (AML): no benefit | OS compared with LDAC alone [6]: significant increase in OS

Compound: bev: anti-angiogenics; Bevacizumab (also referred to herein as "bev")
mOS ([7]; bev naïve): 13.9 months | mPFS ([7]; bev naïve): 6.9 months | mOS ([7]; prior bev): 12.5 months | mPFS ([7]; prior bev): 6.7 months
